In patent US8969299B2, “Therapeutic agents for regulating serum phosphorus” (KAI Pharmaceuticals, Inc., priority 2011, dated 2015):
Blank lines part the entries; values can stand above or below the compound they belong to. Peptide text beside a SMILES is read from it.

Key:
1K1C model animals = test: plasma PTH reduction after 30-minute IV infusion in 1K1C model animals; assay type: in vivo; conditions: 3 mg/kg; for effect on plasma PTH: 30-minute IV infusion; for mean PTH reduction: 24 hour time point
Source text: These compounds include (i) Ac-crrrr-NH2 (SEQ ID NO:4), (ii) Ac-crrrrr-NH2 (SEQ ID NO:5), (iii) Ac-crrrrrr-NH2 (SEQ ID NO:6), and (iv) Ac-crrrrrrr-NH2 (SEQ ID NO:7). In previous studies, the compounds identified as SEQ ID NO:4, SEQ ID NO:5, SEQ ID NO:6 and SEQ ID NO:7 were each administered by a 30-minute IV infusion to 1K1C model animals and effected a reduction in plasma PTH levels as a percent of the pre-dosing (baseline) level. […] These latter two compounds produced a mean PTH reduction of ˜40% and 60% at the 24 hour time point, respectively. It should be noted that the compounds in this study were administered at the same mg/kg dose but, due to differences in molecular weight, a different number of moles of each compound was actually dosed.

normal rats = test: PTH reduction in vivo in normal rats; design: species or system rat; conditions: for decrease in percent PTH: after a single IV administration in normal rats
Procedure: The data illustrate that cationic and uncharged residues at different positions are not all equal and there are changes in activity as a result of change in the compound structure.
The structure-activity relationship of the thiol-containing group in the X1 subunit of the compound was further analyzed by preparing compounds with differing X1 subunits. The compounds, were tested in vivo in normal rats for activity to reduce PTH. The data illustrated that the thiol-containing X1 subunit can be varied. Compounds with the following in the N-terminal residue were tested—D-cysteine (cys), D-penicillamine (dPen), d-homocysteine (dHcy) and mercaptopropionic acid (Mpa). In addition, a natural or non-natural amino acid, such as beta alanine, can be conjugated to the N-terminal thiol-containing residue. The data illustrated that cationic compounds such as […] (SEQ ID NO:6) containing different thiol-containing groups in the X1 subunit effectively reduce PTH in vivo.
In another study of the structure activity relationship, the contribution of non-cationic amino acids to the potency of the peptides was evaluated by preparing a series of peptides with various D-amino acid residues or glycine or with sterically-hindered non-natural amino acids, substituted at various positions in the peptide Ac-carrrar-NH2 (SEQ ID NO:26) and in the peptide Ac-crrarar-NH2 (SEQ ID NO:153). The peptides were administered as an IV bolus to normal Sprague Dawley rats at a dose of 0.5 mg/kg. An intravenous (IV) bolus of saline was used as a control. Plasma PTH levels were assessed prior to dosing and 1, 2, 3 and 4 hours after dosing.

PTH blood concentration = test: in vivo PTH-lowering activity (species not stated)
Procedure: The contribution of the thiol-containing group in the X1 subunit of the compound (e.g., in certain embodiments where the compound is a peptide on the N-terminal residue), was also investigated in an in vivo study. The PTH-lowering activity of the peptides identified as SEQ ID NO:26 (Ac-carrrar-NH2) and as SEQ ID NO:29 (Ac-arrrar-NH2) was evaluated in vivo.

human CaSR = target: T1, human CaSR (Homo sapiens, UniProt P41180); test: IP1 production in HEK293 cells that express the human CaSR; assay type: cell-based; conditions: HEK 293 cells
T1 construct: expressed in transfected cells; host or cells: HEK293
T1 sequence (P41180 20-1078): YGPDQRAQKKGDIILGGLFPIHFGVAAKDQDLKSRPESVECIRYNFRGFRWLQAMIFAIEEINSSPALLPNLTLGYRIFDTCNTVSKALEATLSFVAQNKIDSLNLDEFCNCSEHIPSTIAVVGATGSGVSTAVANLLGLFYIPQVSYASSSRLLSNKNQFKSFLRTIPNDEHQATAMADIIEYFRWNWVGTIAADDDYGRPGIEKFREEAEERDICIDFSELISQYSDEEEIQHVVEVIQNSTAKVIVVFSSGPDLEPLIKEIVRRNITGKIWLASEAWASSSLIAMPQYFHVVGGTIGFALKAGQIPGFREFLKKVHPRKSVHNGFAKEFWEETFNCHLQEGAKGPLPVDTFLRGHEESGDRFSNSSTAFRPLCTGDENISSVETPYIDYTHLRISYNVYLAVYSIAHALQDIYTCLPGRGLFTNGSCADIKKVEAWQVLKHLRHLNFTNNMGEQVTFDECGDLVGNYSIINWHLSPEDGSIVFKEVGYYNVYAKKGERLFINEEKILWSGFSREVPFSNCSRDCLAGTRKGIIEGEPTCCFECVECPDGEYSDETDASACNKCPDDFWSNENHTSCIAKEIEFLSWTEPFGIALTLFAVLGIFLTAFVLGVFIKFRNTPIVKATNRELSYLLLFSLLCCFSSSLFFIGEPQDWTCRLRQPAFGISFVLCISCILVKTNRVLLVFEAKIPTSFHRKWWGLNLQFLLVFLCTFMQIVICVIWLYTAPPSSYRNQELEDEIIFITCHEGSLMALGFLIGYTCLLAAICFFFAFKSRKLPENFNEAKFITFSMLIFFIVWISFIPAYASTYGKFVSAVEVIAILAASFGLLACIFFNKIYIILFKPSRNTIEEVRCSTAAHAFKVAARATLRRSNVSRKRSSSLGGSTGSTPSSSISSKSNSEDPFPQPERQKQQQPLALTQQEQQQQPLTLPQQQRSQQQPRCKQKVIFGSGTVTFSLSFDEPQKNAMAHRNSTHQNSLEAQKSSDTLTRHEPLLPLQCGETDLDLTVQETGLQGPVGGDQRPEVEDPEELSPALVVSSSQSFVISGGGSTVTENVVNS

Structure (SMILES): CC(=O)N[C@H](CS)C(=O)N[C@H](CCCNC(=N)N)C(=O)N[C@H](CCCNC(=N)N)C(=O)N[C@H](CCCNC(=N)N)C(=O)N[C@H](CCCNC(=N)N)C(=O)N[C@H](CCCNC(=N)N)C(N)=O [SEQ ID NO: 5, Ac-crrrrr-NH2] (HELM PEPTIDE1{[ac].[dC].[dR].[dR].[dR].[dR].[dR].[am]}$$$$V2.0)
effect on plasma PTH (1K1C model animals): significant drop in plasma PTH
mean PTH reduction (1K1C model animals): 60%

Structure (SMILES): CC(=O)N[C@H](CS)C(=O)N[C@H](CCCNC(=N)N)C(=O)N[C@H](CCCNC(=N)N)C(=O)N[C@H](CCCNC(=N)N)C(=O)N[C@H](CCCNC(=N)N)C(=O)N[C@H](CCCNC(=N)N)C(=O)N[C@H](CCCNC(=N)N)C(N)=O [SEQ ID NO: 6, Ac-crrrrrr-NH2]
decrease in percent PTH (normal rats): below the detection limit or essentially zero
effect on plasma PTH (1K1C model animals): significant drop in plasma PTH
mean PTH reduction (1K1C model animals): ~40%
in vivo activity in comparison (PTH blood concentration; compared with SEQ ID NO:41): greater and more prolonged activity than Ac-crrrrrrrr-NH2 (SEQ ID NO:41)

Structure (SMILES): CC(=O)N[C@H](CS)C(=O)N[C@H](CCCNC(=N)N)C(=O)N[C@H](CCCNC(=N)N)C(=O)N[C@H](CCCNC(=N)N)C(=O)N[C@H](CCCNC(=N)N)C(=O)N[C@H](CCCNC(=N)N)C(=O)N[C@H](CCCNC(=N)N)C(=O)N[C@H](CCCNC(=N)N)C(N)=O [SEQ ID NO: 7, Ac-crrrrrrr-NH2] (HELM PEPTIDE1{[ac].[dC].[dR].[dR].[dR].[dR].[dR].[dR].[dR].[am]}$$$$V2.0)
effect on plasma PTH (1K1C model animals): significant drop in plasma PTH

Structure (SMILES): CC(=O)N[C@H](CS)C(=O)N[C@H](C)C(=O)N[C@H](CCCNC(=N)N)C(=O)N[C@H](CCCNC(=N)N)C(=O)N[C@H](CCCNC(=N)N)C(=O)N[C@H](CCCNC(=N)N)C(=O)N[C@H](CCCNC(=N)N)C(N)=O [SEQ ID NO: 8, Ac-carrrrr-NH2] (HELM PEPTIDE1{[ac].[dC].[dA].[dR].[dR].[dR].[dR].[dR].[am]}$$$$V2.0)
decrease in percent PTH (normal rats): below the detection limit or essentially zero

Structure (SMILES): CC(=O)N[C@H](CS)C(=O)N[C@H](CCCNC(=N)N)C(=O)N[C@H](CCCNC(=N)N)C(=O)N[C@H](C)C(=O)N[C@H](CCCNC(=N)N)C(=O)N[C@H](CCCNC(=N)N)C(=O)N[C@H](CCCNC(=N)N)C(N)=O [SEQ ID NO: 10, Ac-crrarrr-NH2] (HELM PEPTIDE1{[ac].[dC].[dR].[dR].[dA].[dR].[dR].[dR].[am]}$$$$V2.0)
decrease in percent PTH (normal rats): below the detection limit or essentially zero

reduction in in vitro potency relative to Ac-crrrrrr-NH2 (SEQ ID NO:6) (human CaSR): 5-10 fold
Structure (SMILES): CC(=O)N[C@H](CS)C(=O)N[C@H](CCCNC(=N)N)C(=O)N[C@H](CCCNC(=N)N)C(=O)N[C@H](CCCNC(=N)N)C(=O)N[C@H](C)C(=O)N[C@H](CCCNC(=N)N)C(=O)N[C@H](CCCNC(=N)N)C(N)=O [SEQ ID NO: 11, Ac-crrrarr-NH2] (HELM PEPTIDE1{[ac].[dC].[dR].[dR].[dR].[dA].[dR].[dR].[am]}$$$$V2.0)
in vivo percent PTH AUC reduction (normal rats; single IV administration): 45%

Structure (SMILES): CC(=O)N[C@H](CS)C(=O)N[C@H](C)C(=O)N[C@H](CCCNC(=N)N)C(=O)N[C@H](C)C(=O)N[C@H](CCCNC(=N)N)C(=O)N[C@H](CCCNC(=N)N)C(=O)N[C@H](CCCNC(=N)N)C(N)=O [SEQ ID NO: 15, Ac-cararrr-NH2] (HELM PEPTIDE1{[ac].[dC].[dA].[dR].[dA].[dR].[dR].[dR].[am]}$$$$V2.0)
ability to activate the CaSR in vitro, in words (human CaSR): significantly reduced potency in vitro in activating the CaSR

reduction in in vitro potency relative to Ac-crrrrrr-NH2 (SEQ ID NO:6) (human CaSR): −3 fold
Structure (SMILES): CC(=O)N[C@H](CS)C(=O)N[C@H](C)C(=O)N[C@H](CCCNC(=N)N)C(=O)N[C@H](CCCNC(=N)N)C(=O)N[C@H](CCCNC(=N)N)C(=O)N[C@H](C)C(=O)N[C@H](CCCNC(=N)N)C(N)=O [SEQ ID NO: 26, Ac-carrrar-NH2]
ability to activate the CaSR in vitro, in words (human CaSR): retained much of the potency seen with Ac-crrrrrr-NH2 (SEQ ID NO:6)
PTH blood concentration (PTH blood concentration; 0.5 mg/kg dose): decreased PTH blood concentration to a non-detectable level for up to 4 hours after dosing

Structure (SMILES): CC(=O)N[C@H](C)C(=O)N[C@H](CCCNC(=N)N)C(=O)N[C@H](CCCNC(=N)N)C(=O)N[C@H](CCCNC(=N)N)C(=O)N[C@H](C)C(=O)N[C@H](CCCNC(=N)N)C(N)=O [SEQ ID NO: 29, Ac-arrrar-NH2] (HELM PEPTIDE1{[ac].[dA].[dR].[dR].[dR].[dA].[dR].[am]}$$$$V2.0)
ability to activate the CaSR in vitro, in words (human CaSR): dramatically reduced the ability of the compound to activate the CaSR
PTH concentration (PTH blood concentration; 9 mg/kg dose): did not reduce PTH concentration

Structure (SMILES): CC(=O)N[C@H](CS)C(=O)N[C@H](CCCNC(=N)N)C(=O)N[C@H](CCCNC(=N)N)C(=O)N[C@H](CCCNC(=N)N)C(=O)N[C@H](CCCNC(=N)N)C(=O)N[C@H](CCCNC(=N)N)C(=O)N[C@H](CCCNC(=N)N)C(=O)N[C@H](CCCNC(=N)N)C(=O)N[C@H](CCCNC(=N)N)C(N)=O [SEQ ID NO: 41, Ac-crrrrrrrr-NH2] (HELM PEPTIDE1{[ac].[dC].[dR].[dR].[dR].[dR].[dR].[dR].[dR].[dR].[am]}$$$$V2.0)
ability to activate the CaSR in vitro, in words (human CaSR): more potent at activating the CaSR

decrease in potency relative to Ac-carrrar-NH2 (SEQ ID NO:26) (human CaSR): < 4 fold
reduction in in vitro potency relative to Ac-crrrrrr-NH2 (SEQ ID NO:6) (human CaSR): 10 fold
Structure (SMILES): CC(=O)N[C@@H](CS)C(=O)N[C@H](C)C(=O)N[C@@H](CCCNC(=N)N)C(=O)N[C@H](CCCNC(=N)N)C(=O)N[C@@H](CCCNC(=N)N)C(=O)N[C@H](C)C(=O)N[C@@H](CCCNC(=N)N)C(N)=O [SEQ ID NO: 44, Ac-CaRrRaR-NH2]
